{
  "source": "patent US11590131B2",
  "about": "“Compositions and methods for treating galactosemia” (Applied Therapeutics, Inc., priority 2017, dated 2023)",
  "assay_type_in_all_cases": "in vivo, rat",
  "key": {"GALT-null rats [1]": {"test_system": "GALT-null rats", "assay": "Qualitative visual scoring of cataracts (0-3 scale) in GALT null rats", "text": "Rats, with impaired GALT activity due to genetic modification (GALT null), were used as a model of galactosemia. This rat model mirrors human classic galactosemia in some important ways. The rats develop physical characteristics including cataracts follow exposure to galactose, growth abnormalities, and neurological/cognitive abnormalities, which mirror abnormalities in human patients and can be quantified. The rats also have biochemical characteristics that mirror human disease including elevated levels of galactose and galactose metabolites, including galactitol and Gal1), in blood and tissues. Rats were generated from heterozygote crosses (heterozygous M3 GALT null strain representing classic galactosemia). […] Aldose reductase inhibitor (Compound A or Compound B), suspended in Gerber formula, was administered orally at about 12-hour intervals (BID) at 1 mg inhibitor/gram pup weight (=1000 mg/kg) for each dose. Before use, drug was stored at −20° C. in a bottle or tubes wrapped in aluminum foil. Just before each feeding an aliquot of drug was re-suspended in formula, mixed well, and pipetted into individual tubes to be fed to the pups (volume calculated per pup weight measured that morning). All placebo and drug tubes of formula were warmed to 37° C. immediately before feeding. Placebo and drug were fed to pups by hand using a syringe and tubing. Pups receiving drug also were fed a small additional volume of Gerber formula that had been used to wash the tube and syringe immediately after the drug feeding. To motivate eating, pups were removed from their mother (to prevent nursing) and maintained in nests in a humidified incubator for about 2 hours at 35-37° C. prior to each feeding. […] In the first part of the study, cataracts were scored visually by a blinded rater on a 3 point scale, with zero being no cataracts present (absent), 1 being mild, 2 being moderate and 3 being severe cataracts present. In the second part of the study, eyes were dissected after euthanization, photographed via digital camera, and cataracts were quantified via software"}, "GALT-null rats [2]": {"test_system": "GALT-null rats", "assay": "Digital photographic quantification of cataracts in GALT null rats", "text": "Rats, with impaired GALT activity due to genetic modification (GALT null), were used as a model of galactosemia. This rat model mirrors human classic galactosemia in some important ways. The rats develop physical characteristics including cataracts follow exposure to galactose, growth abnormalities, and neurological/cognitive abnormalities, which mirror abnormalities in human patients and can be quantified. The rats also have biochemical characteristics that mirror human disease including elevated levels of galactose and galactose metabolites, including galactitol and Gal1), in blood and tissues. Rats were generated from heterozygote crosses (heterozygous M3 GALT null strain representing classic galactosemia). […] Just before each feeding an aliquot of drug was re-suspended in formula, mixed well, and pipetted into individual tubes to be fed to the pups (volume calculated per pup weight measured that morning). […] In the first part of the study, cataracts were scored visually by a blinded rater on a 3 point scale, with zero being no cataracts present (absent), 1 being mild, 2 being moderate and 3 being severe cataracts present. In the second part of the study, eyes were dissected after euthanization, photographed via digital camera, and cataracts were quantified via software"}, "GALT-null rats [3]": {"test_system": "GALT-null rats", "assay": "Metabolite levels (galactitol, galactose, Gal1P) by HPLC in liver, brain and plasma of GALT null rats", "text": "Rats, with impaired GALT activity due to genetic modification (GALT null), were used as a model of galactosemia. This rat model mirrors human classic galactosemia in some important ways. The rats develop physical characteristics including cataracts follow exposure to galactose, growth abnormalities, and neurological/cognitive abnormalities, which mirror abnormalities in human patients and can be quantified. The rats also have biochemical characteristics that mirror human disease including elevated levels of galactose and galactose metabolites, including galactitol and Gal1), in blood and tissues. Rats were generated from heterozygote crosses (heterozygous M3 GALT null strain representing classic galactosemia). […] Aldose reductase inhibitor (Compound A or Compound B), suspended in Gerber formula, was administered orally at about 12-hour intervals (BID) at 1 mg inhibitor/gram pup weight (=1000 mg/kg) for each dose. Before use, drug was stored at −20° C. in a bottle or tubes wrapped in aluminum foil. Just before each feeding an aliquot of drug was re-suspended in formula, mixed well, and pipetted into individual tubes to be fed to the pups (volume calculated per pup weight measured that morning). All placebo and drug tubes of formula were warmed to 37° C. immediately before feeding. Placebo and drug were fed to pups by hand using a syringe and tubing. Pups receiving drug also were fed a small additional volume of Gerber formula that had been used to wash the tube and syringe immediately after the drug feeding. To motivate eating, pups were removed from their mother (to prevent nursing) and maintained in nests in a humidified incubator for about 2 hours at 35-37° C. prior to each feeding. Separate syringes were used for placebo and drug. Pups were wrapped in fleece during feeding, which lasted about 2-5 minutes each. Lysates for metabolite analysis were prepared as follows: 50-100 mg pieces of previously frozen liver or brain were homogenized by grinding for 30 seconds using a Teflon micropestle and handheld micropestle motor (Kimble Chase Life Science and Research Products LLC) in 125 μl ice-cold HPLC-grade water. Metabolites were separated and quantified by HPLC (See, e.g., Daenzer, et al. Dis. Model Mech. 2016, 9(11):1375-1382)). Galactitol, inositol, and glucose were quantified using the same HPLC conditions described to quantify galactose by (Daenzer, 2016). Metabolite levels were normalized to the total area of peaks detected by the relevant column and elution run for that sample, minus the peaks that most distinguished homozygous M3/M3 samples from controls. Specifically, metabolites separated on the MA1 column (galactitol, inositol, galactose and glucose) were normalized to total peak area minus galactose and galactitol, and metabolites separated on the PA10 column (galactose-1P) were normalized to total peak area minus galactose and galactose-1P."}},
  "note": "“Also recorded” adds a separate entry of the source.",
  "data": [
    {"smiles": "O=C(O)Cc1nn(Cc2cc3cc(C(F)(F)F)ccc3s2)c(=O)c2cscc12", "note": "[Compound B]", "values": [
      {"measurement": "qualitative assessment of cataracts (0-3 scale)", "setting": "GALT-null rats [1]; day 10 of life, FIG. 2C", "value": "had cataracts"},
      {"measurement": "qualitative assessment of cataracts (0-3 scale)", "setting": "GALT-null rats [1]; day 22 of life, placebo average severity 1.5, FIG. 2D", "value": "did not have cataracts; also recorded: cataracts were not present"},
      {"measurement": "digital quantitative analysis of cataracts (score)", "setting": "GALT-null rats [2]; GALT null rats, day 22 of life, FIG. 2B", "value": "the same score as wild type rats"},
      {"measurement": "galactitol levels in liver, brain and plasma", "setting": "GALT-null rats [3]; day 10 of life, FIG. 3A", "value": "normal or near normal levels"},
      {"measurement": "galactose levels", "setting": "GALT-null rats [3]; day 10 of life, FIG. 3B", "value": "did not further increase"},
      {"measurement": "Gal1P levels", "setting": "GALT-null rats [3]; day 10 of life, FIG. 3C", "value": "did not further increase"}
    ]},
    {"smiles": "O=C(O)Cc1nn(Cc2nc3cc(C(F)(F)F)ccc3s2)c(=O)c2nccnc12", "note": "[Compound A]", "values": [
      {"measurement": "qualitative assessment of cataracts (scale of 0-3)", "setting": "GALT-null rats [1]; day nine of life, versus placebo, FIG. 2A", "value": "no cataracts"},
      {"measurement": "cataracts (qualitative initial study and digitally quantified follow-on study)", "setting": "GALT-null rats [2]; GALT null rats, 1,000 mg/kg BID or 250 mg/kg BID in follow-on study", "value": "reduced cataracts"},
      {"measurement": "reduction of brain galactitol levels compared to placebo", "setting": "GALT-null rats [3]; day 9", "value": 40, "unit": "%"},
      {"measurement": "reduction of liver galactitol levels compared to placebo", "setting": "GALT-null rats [3]; day 9", "value": 87, "unit": "%"},
      {"measurement": "reduction of brain galactitol levels compared to placebo", "setting": "GALT-null rats [3]; day 15-18", "value": 57, "unit": "%"},
      {"measurement": "reduction of liver galactitol levels compared to placebo", "setting": "GALT-null rats [3]; day 15-18", "value": 57, "unit": "%"}
    ]}
  ]
}
